What is called Km is the substrate concentration at which the rate is half of its maximum.

The experiment concerns ZomB. To be noted: saturating ssDNA (poly(dT)); 1 mM MgCl2, 50 mM NaCl, 2 mM DTT, 20 mM Tris-Cl pH 8.0, 25 °C; 50 nM ZomB.

Each structure is given as a SMILES string.

Take `Nc1ncnc2c1ncn2[C@@H]1O[C@H](COP(=O)(O)OP(=O)(O)OP(=O)(O)O)[C@@H](O)[C@H]1O` [ATP]: the Km stood at 90 µM.

The values above are taken from publication PMC9453066, “Targeted control of pneumolysin production by a mobile genetic element in Streptococcus pneumoniae” (Microbial Genomics, 2022).
